Experimental data published in ChEMBL document CHEMBL1681700, “Cytotoxic 3,6-bis((imidazolidinone)imino)acridines: synthesis, DNA binding and molecular modeling” (Bioorg Med Chem, 2011).
The source made the active and inactive calls. The calls are words filed in the database; no cut-off is given here.

Key:
[1] = test system: L1210; assay: Cytotoxicity against mouse L1210 cells after 48 hrs by MTT assay; format: functional, cell-based; conditions: L1210, 48 h
[2] = test system: Calf thymus DNA; assay: Binding affinity to calf thymus DNA at pH 7.4 by UV-visible spectrophotometer; format: nucleic-acid assay; conditions: Bos taurus
[3] = test system: Calf thymus DNA; assay: Binding affinity to C:G base pair region of calf thymus DNA by UV-visible spectrophotometer; format: nucleic-acid assay; conditions: Bos taurus
[4] = test system: L1210; assay: Cytotoxicity against mouse L1210 cells after 48 hrs by trypan blue dye exclusion test; format: functional, cell-based; conditions: L1210, 48 h
[5] = test system: L1210; assay: Cytotoxicity against mouse L1210 cells after 72 hrs by trypan blue dye exclusion test; format: functional, cell-based; conditions: L1210, 72 h
[6] = test system: HL-60; assay: Drug uptake in human HL60 cells assessed as drug distribution in plasmatic membrane and cytosol at 5 uM after 4 hrs by fluorescence analysis; format: ADME, cell-based; conditions: hl-60, 4 h
[7] = test system: U-937; assay: Induction of apoptosis in human U937 cells assessed as DNA fragmentation at 122 uM after 18 hrs by ethidium bromide staining agarose gel electrophoresis; format: functional, cell-based
[8] = test system: HL-60; assay: Drug uptake in human HL60 cells assessed as drug accumulation in nucleus at 5 uM after 24 hrs by fluorescence analysis; format: ADME, cell-based; conditions: hl-60, 24 h
[9] = test system: L1210; assay: Cytotoxicity against mouse L1210 cells after 72 hrs by MTT assay; format: functional, cell-based; conditions: L1210, 72 h
[10] = test system: HL-60; assay: Cytotoxicity against human HL60 cells after 72 hrs by MTT assay; format: functional, cell-based; conditions: HL-60, 72 h
[11] = organism: Bos taurus; assay: Inhibition of calf thymus topoisomerase 1-mediated supercoiled DNA relaxation at 40 uM after 45 mins by ethidium bromide staining agarose gel electrophoresis
[12] = test system: Calf thymus DNA; assay: Binding affinity to calf thymus DNA assessed as hypochromic effect by UV-visible spectrophotometer; format: nucleic-acid assay; design: concentration or dose not given beside the values; conditions: Bos taurus
[13] = test system: HL-60; assay: Cytotoxicity against human HL60 cells after 72 hrs by trypan blue dye exclusion test; format: functional, cell-based; conditions: HL-60, 72 h
[14] = test system: HL-60; assay: Cytotoxicity against human HL60 cells after 48 hrs by MTT assay; format: functional, cell-based; conditions: HL-60, 48 h
[15] = test system: HL-60; assay: Drug uptake in human HL60 cells assessed as drug accumulation at 5 uM after 140 mins by fluorescence analysis; format: ADME, cell-based; conditions: hl-60, 140 min
[16] = test system: Calf thymus DNA; assay: Binding affinity to A:T base pair region of calf thymus DNA by UV-visible spectrophotometer; format: nucleic-acid assay; conditions: Bos taurus
[17] = Octanol-water partition coefficient, log P of the compound; format: physicochemical
[18] = organism: Bos taurus; assay: Inhibition of calf thymus topoisomerase 1-mediated supercoiled DNA relaxation at 5 uM after 45 mins by ethidium bromide staining agarose gel electrophoresis
[19] = test system: HL-60; assay: Cytotoxicity against human HL60 cells after 48 hrs by trypan blue dye exclusion test; format: functional, cell-based; conditions: HL-60, 48 h
[20] = test system: HL-60; assay: Cytotoxicity against human HL60 cells at 3 to 10 uM after 72 hrs; format: functional, cell-based
[21] = test system: HL-60; assay: Antiproliferative activity against human HL60 cells assessed as cytostatic effect at 1 uM after 72 hrs; format: functional, cell-based

| Compound | IC50 [1] [µM] | K [2] [×10⁵ /M] | Activity [3] | IC50 [4] [µM] | IC50 [5] [µM] | Drug uptake [6] | Activity [7] | Drug uptake [8] | IC50 [9] [µM] | IC50 [10] [µM] | inhibition [11] | Activity [12] [%] | IC50 [13] [µM] | IC50 [14] [µM] | Drug uptake [15] | Activity [16] | logP [17] | inhibition [18] | IC50 [19] [µM] | other results |
| --- | --- | --- | --- | --- | --- | --- | --- | --- | --- | --- | --- | --- | --- | --- | --- | --- | --- | --- | --- | --- |
| CCCN1C(=O)CN/C1=N\c1ccc2cc3ccc(/N=C4\NCC(=O)N4CCC)cc3nc2c1.Cl | 45.8 | 5.7 | Active | 44.7 | 65.4 | Active | Active | Not Active | 68 | 95.7 | Active | 54 | 88.6 | 74.1 | Not Active | inactive | 3.21 | inactive | 70.6 | – |
| CCCCN1C(=O)CN/C1=N\c1ccc2cc3ccc(/N=C4\NCC(=O)N4CCCC)cc3nc2c1 | 29.2 | 4.2 | Active | 26.4 | 27.3 | – | Active | – | 26.1 | 16.4 | Active | 50 | 14.7 | 13.7 | – | inactive | 4.1 | inactive | 11.7 | – |
| CCCCCCN1C(=O)CN/C1=N\c1ccc2cc3ccc(/N=C4\NCC(=O)N4CCCCCC)cc3nc2c1.Cl | 5.52 | 1.9 | Active | 4.31 | 5.28 | Active | Active | Active | 5.99 | 4.94 | Active | 47 | 2.12 | 4.61 | Active | inactive | 5.88 | inactive | 2.44 | Activity [20]: Toxic; Activity [21]: Active |
| CCCCCN1C(=O)CN/C1=N\c1ccc2cc3ccc(/N=C4\NCC(=O)N4CCCCC)cc3nc2c1 | 13.7 | 2.8 | Active | 12.4 | 15.7 | – | Active | – | 15.2 | 8.59 | Active | 45 | 7.18 | 8.37 | – | inactive | 4.99 | inactive | 5.31 | – |
| CCN1C(=O)CN/C1=N\c1ccc2cc3ccc(/N=C4\NCC(=O)N4CC)cc3nc2c1 | > 100 | 7.1 | Active | 91.7 | > 100 | – | Active | – | > 100 | 80.3 | Active | 34 | 85.2 | 76.6 | – | inactive | 2.17 | inactive | 83.8 | – |
